Measured values taken from the NIST ThermoML archive (doi:10.1021/acs.jced.5b00934).
Numbers after ± are expanded uncertainties.

Settings: Liquid, Vibrating tube method

CCC(C)O (stereo not drawn) [butan-2-ol]
Settings	mass density [kg/m3]
323.15 K, 57941 kPa	822.2 ± 1
323.15 K, 65042 kPa	826.2 ± 1
323.16 K, 83 kPa	780.1 ± 0.8
323.16 K, 310 kPa	780.3 ± 0.8
323.16 K, 904 kPa	780.9 ± 0.8
323.16 K, 2023 kPa	781.9 ± 0.8
323.16 K, 2969 kPa	782.8 ± 0.8
323.16 K, 22069 kPa	798.7 ± 0.9
323.16 K, 30034 kPa	804.5 ± 0.9
323.16 K, 32030 kPa	805.9 ± 0.9
323.16 K, 33179 kPa	806.7 ± 0.9
323.16 K, 34081 kPa	807.3 ± 0.9
323.16 K, 35135 kPa	808 ± 0.9
323.16 K, 44962 kPa	814.4 ± 0.9
323.16 K, 48021 kPa	816.3 ± 1
323.16 K, 55018 kPa	820.5 ± 1
323.16 K, 60048 kPa	823.4 ± 1
323.16 K, 62109 kPa	824.6 ± 1
323.16 K, 66222 kPa	826.9 ± 1
328.15 K, 97 kPa	775.5 ± 0.8
328.15 K, 549 kPa	775.9 ± 0.8
328.15 K, 2980 kPa	778.3 ± 0.8
328.15 K, 6989 kPa	782.1 ± 0.8
328.15 K, 9026 kPa	784 ± 0.9
328.15 K, 10174 kPa	785 ± 0.9
328.15 K, 15005 kPa	789.1 ± 0.9
328.15 K, 17974 kPa	791.5 ± 0.9
328.15 K, 22112 kPa	794.8 ± 0.9
328.15 K, 28057 kPa	799.3 ± 0.9
328.15 K, 30020 kPa	800.7 ± 0.9
328.15 K, 32096 kPa	802.2 ± 0.9
328.15 K, 33090 kPa	802.9 ± 0.9
328.15 K, 34106 kPa	803.6 ± 0.9
328.15 K, 38003 kPa	806.3 ± 0.9
328.15 K, 40189 kPa	807.7 ± 0.9
328.15 K, 42227 kPa	809.1 ± 0.9
328.16 K, 325 kPa	775.7 ± 0.8
328.16 K, 909 kPa	776.3 ± 0.8
328.16 K, 1025 kPa	776.4 ± 0.8
328.16 K, 2032 kPa	777.5 ± 0.8
328.16 K, 4986 kPa	780.3 ± 0.8
328.16 K, 12064 kPa	786.6 ± 0.9
328.16 K, 20081 kPa	793.3 ± 0.9
328.16 K, 25008 kPa	797.1 ± 0.9
328.16 K, 33187 kPa	802.9 ± 0.9
328.16 K, 35148 kPa	804.3 ± 0.9
328.16 K, 45203 kPa	811.1 ± 1
328.16 K, 48119 kPa	812.8 ± 1
328.16 K, 50027 kPa	814 ± 1
328.16 K, 52217 kPa	815.4 ± 1
328.16 K, 55140 kPa	817.1 ± 1
328.16 K, 58016 kPa	818.7 ± 1
328.16 K, 59968 kPa	819.8 ± 1
328.16 K, 61968 kPa	820.9 ± 1
328.16 K, 65013 kPa	822.7 ± 1
328.16 K, 66143 kPa	823.3 ± 1
333.15 K, 100 kPa	770.5 ± 0.8
333.15 K, 350 kPa	770.7 ± 0.8
333.15 K, 494 kPa	770.9 ± 0.8
333.15 K, 901 kPa	771.3 ± 0.8
333.15 K, 1016 kPa	771.5 ± 0.8
333.15 K, 2000 kPa	772.4 ± 0.8
333.15 K, 3021 kPa	773.4 ± 0.8
333.15 K, 5004 kPa	775.4 ± 0.8
333.15 K, 7066 kPa	777.4 ± 0.8
333.15 K, 8994 kPa	779.1 ± 0.9
333.15 K, 10031 kPa	780 ± 0.9
333.15 K, 11980 kPa	781.8 ± 0.9
333.15 K, 15020 kPa	784.5 ± 0.9
333.15 K, 17985 kPa	786.9 ± 0.9
333.15 K, 22042 kPa	790.2 ± 0.9
333.15 K, 25059 kPa	792.7 ± 0.9
333.15 K, 28048 kPa	794.9 ± 0.9
333.15 K, 29961 kPa	796.3 ± 0.9
333.15 K, 32126 kPa	798 ± 0.9
333.15 K, 32780 kPa	798.4 ± 0.9
333.15 K, 32804 kPa	798.4 ± 0.9
333.15 K, 33981 kPa	799.2 ± 0.9
333.15 K, 35081 kPa	800 ± 0.9
333.15 K, 38040 kPa	802.1 ± 0.9
333.15 K, 39970 kPa	803.4 ± 0.9
333.15 K, 45112 kPa	806.9 ± 1
333.15 K, 47953 kPa	808.7 ± 1
333.15 K, 50048 kPa	810.1 ± 1
333.15 K, 52052 kPa	811.3 ± 1
333.15 K, 55007 kPa	813.2 ± 1
333.15 K, 62024 kPa	817.4 ± 1
333.15 K, 64970 kPa	819.1 ± 1
333.15 K, 66117 kPa	819.8 ± 1
333.16 K, 20151 kPa	788.8 ± 0.9
333.16 K, 42099 kPa	804.9 ± 0.9
333.16 K, 58002 kPa	815 ± 1
333.16 K, 60019 kPa	816.2 ± 1
338.15 K, 99 kPa	765.5 ± 0.8
338.15 K, 292 kPa	765.7 ± 0.8
338.15 K, 539 kPa	766 ± 0.8
338.15 K, 892 kPa	766.4 ± 0.8
338.15 K, 1007 kPa	766.5 ± 0.8
338.15 K, 3160 kPa	768.7 ± 0.8
338.15 K, 4911 kPa	770.5 ± 0.8
338.15 K, 10039 kPa	775.5 ± 0.9
338.15 K, 12002 kPa	777.3 ± 0.9
338.15 K, 15149 kPa	780.1 ± 0.9
338.15 K, 18051 kPa	782.6 ± 0.9
338.15 K, 19986 kPa	784.2 ± 0.9
338.15 K, 21999 kPa	785.9 ± 0.9
338.15 K, 32975 kPa	794.4 ± 0.9
338.15 K, 35130 kPa	796 ± 0.9
338.15 K, 40077 kPa	799.5 ± 0.9
338.15 K, 44943 kPa	802.8 ± 1
338.15 K, 48022 kPa	804.9 ± 1
338.15 K, 52052 kPa	807.5 ± 1
338.15 K, 55069 kPa	809.5 ± 1
338.15 K, 58033 kPa	811.3 ± 1
338.15 K, 60108 kPa	812.6 ± 1
338.15 K, 62047 kPa	813.7 ± 1
338.15 K, 65005 kPa	815.5 ± 1
338.15 K, 66128 kPa	816.2 ± 1
338.16 K, 2082 kPa	767.6 ± 0.8
338.16 K, 6964 kPa	772.5 ± 0.8
338.16 K, 8976 kPa	774.5 ± 0.9
338.16 K, 24990 kPa	788.3 ± 0.9
338.16 K, 27960 kPa	790.7 ± 0.9
338.16 K, 30065 kPa	792.3 ± 0.9
338.16 K, 31895 kPa	793.7 ± 0.9
338.16 K, 32982 kPa	794.5 ± 0.9
338.16 K, 33953 kPa	795.1 ± 0.9
338.16 K, 37933 kPa	798 ± 0.9
338.16 K, 41987 kPa	800.8 ± 1
338.16 K, 50029 kPa	806.2 ± 1
343.15 K, 90 kPa	760.2 ± 0.8
343.15 K, 290 kPa	760.5 ± 0.8
343.15 K, 469 kPa	760.6 ± 0.8
343.15 K, 910 kPa	761.1 ± 0.8
343.15 K, 1032 kPa	761.3 ± 0.8
343.15 K, 1994 kPa	762.3 ± 0.8
343.15 K, 4978 kPa	765.5 ± 0.8
343.15 K, 7040 kPa	767.6 ± 0.8
343.15 K, 9056 kPa	769.6 ± 0.9
343.15 K, 10137 kPa	770.7 ± 0.9
343.15 K, 12089 kPa	772.5 ± 0.9
343.15 K, 14318 kPa	774.6 ± 0.9
343.15 K, 15186 kPa	775.4 ± 0.9
343.15 K, 17997 kPa	777.9 ± 0.9
343.15 K, 19975 kPa	779.7 ± 0.9
343.15 K, 22054 kPa	781.5 ± 0.9
343.15 K, 25145 kPa	784.1 ± 0.9
343.15 K, 27969 kPa	786.3 ± 0.9
343.15 K, 30130 kPa	788.1 ± 0.9
343.15 K, 31848 kPa	789.4 ± 0.9
343.15 K, 32904 kPa	790.1 ± 0.9
343.15 K, 33014 kPa	790.3 ± 0.9
343.15 K, 33950 kPa	790.9 ± 0.9
343.15 K, 35008 kPa	791.7 ± 0.9
343.15 K, 38168 kPa	794.1 ± 0.9
343.15 K, 39957 kPa	795.4 ± 0.9
343.15 K, 42001 kPa	796.8 ± 1
343.15 K, 44975 kPa	798.9 ± 1
